Results as given in patent US20190365818A1, “GENETICALLY-TAGGED STEM CELL LINES AND METHODS OF USE” (ALLEN INSTITUTE, priority 2017, published 2019).
Entries after “also recorded” stand apart in the source; their conditions may differ.

Assays:
Golgi = assay: Fluorescence quantification of 3D images: drug-induced Golgi reorganization; type: cell-based, human; conditions: GFP channel intensity summed over z-stack, 30-minute intervals, vs DMSO
Source text: (§1) The pipeline was prototyped using a small suite of well-characterized compounds that include brefeldin A, paclitaxel, rapamycin, wortmannin and staurosporine (FIG. 26A). Low-resolution imaging (24× magnification) was used to test a matrix of concentrations and time points for each compound of interest to establish an initial set of conditions for each perturbation. hiPSC colonies were monitored for morphologic changes using transmitted light (FIG. 26B) and an endogenously GFP-tagged structure, such as microtubules (FIG. 26C). After establishing an end point response for several compounds, high-resolution (120× magnification) imaging of multiple cell lines was performed under standardized perturbation parameters, in the presence of dyes to label the nucleus and cell membrane for reference purposes (FIG. 27). […] Cells were treated with the indicated perturbation agent at a pre-selected concentration and time point established in phase I.
(§2) Fluorescence quantification of the 3D images were used to analyze drug-induced Golgi reorganization, cytoskeleton reorganization, and cell junction reorganization. To quantify the relative abundance of each structure of interest (e.g. Golgi as presented above), the pixel intensities of the GFP channel (488 nm) were summed across the entire z-stack. […]

microtubules = assay: Image-based drug perturbation of GFP-tagged hiPSC lines: microtubules; type: cell-based, human
Source text: as §1, §2

ER = assay: Image-based drug perturbation of GFP-tagged hiPSC lines: ER; type: cell-based, human; conditions: hiPS cells undergoing mitosis
Source text: as §1

cell junctions = assay: Image-based drug perturbation of GFP-tagged hiPSC lines: cell junctions; parameters: species or system human
Source text: as §1

actin = assay: Image-based drug perturbation of GFP-tagged hiPSC lines: actin; type: cell-based, human
Source text: as §1, §2

myosin = assay: Relative fluorescence quantification and z-axis intensity profiling: myosin; type: cell-based, human; conditions: for myosin organization through the thickness of the cell: z-axis intensity profiling
Source text: as §1
Fluorescence quantification of the 3D images were used to analyze drug-induced Golgi reorganization, cytoskeleton reorganization, and cell junction reorganization. To quantify the relative abundance of each structure of interest (e.g. Golgi as presented above), the pixel intensities of the GFP channel (488 nm) were summed across the entire z-stack. For each experiment, the same threshold was used to exclude background intensity noise across the control (DMSO) and experimental (perturbation agent) groups. The data were plotted by averaging z-stack data from a time interval (30-minute) and compared to the control DMSO data. Dunnett's multiple comparison test was used to perform one-way ANOVA between the different time intervals against the control group.

hiPSC colonies = assay: Image-based drug perturbation of hiPSC colonies: colony and cell morphology; parameters: species or system human
Source text: as §1

ZO-1 = assay: Z-axis intensity profiling of 3D images: cell junction reorganization (ZO-1); type: cell-based, human; conditions: x-z maximum intensity projection, intensity profile plot
Source text: (§3) The pipeline was prototyped using a small suite of well-characterized compounds that include brefeldin A, paclitaxel, rapamycin, wortmannin and staurosporine (FIG. 26A). Low-resolution imaging (24× magnification) was used to test a matrix of concentrations and time points for each compound of interest to establish an initial set of conditions for each perturbation. hiPSC colonies were monitored for morphologic changes using transmitted light (FIG. 26B) and an endogenously GFP-tagged structure, such as microtubules (FIG. 26C). After establishing an end point response for several compounds, high-resolution (120× magnification) imaging of multiple cell lines was performed under standardized perturbation parameters, in the presence of dyes to label the nucleus and cell membrane for reference purposes (FIG. 27). […]
(§4) For drug-induced effects on cell junction reorganization, representative maximum intensity projections of a z-stack along the x-z axis are shown in FIG. 30. From these projections, the mean pixel intensity for the GFP channel along the x-axis, from the top of the image to the bottom, was measured to generate an intensity profile plot. […] To analyze the change in desmosome number, the number of 3D objects in a z-stack were counted using the 3D Object Counter tool in Fiji. […] Data were analyzed by Student's t-test (** p<0.01).

desmosomes = assay: Image-based drug perturbation of GFP-tagged hiPSC lines: desmosomes (3D object count); type: cell-based, human
Source text: as §3, §4

[1] = 3D fluorescence quantification vs DMSO

C[C@H]1CCC/C=C/[C@@H]2C[C@H](O)C[C@H]2[C@H](O)/C=C/C(=O)O1 [Brefeldin A, brefeldin A] was tested, and the “effect on Golgi organization” value (Golgi) was “induced dissociation of the golgi within 30 minutes”.

With CC(=O)O[C@H]1C(=O)[C@@]2(C)[C@H]([C@H](OC(=O)c3ccccc3)[C@]3(O)C[C@H](OC(=O)[C@H](O)[C@@H](NC(=O)c4ccccc4)c4ccccc4)C(C)=C1C3(C)C)[C@]1(OC(C)=O)CO[C@@H]1C[C@@H]2O [paclitaxel] the “effect on microtubule organization” value (microtubules; GFP-tagged hiPSC, high-resolution (120x) imaging, vs DMSO control) was “increased microtubule bundle thickness and altered the shape and position of the mitotic spindle; also recorded: stabilized the microtubules”, the “microtubule relative localized fluorescence intensity” value (microtubules; over time, vs DMSO) was “trend of increased relative localized fluorescence intensity over time” and the “effect on organization of the ER” value (ER) was “induced aberrant reorganization of the ER”. For the same compound, the “effect on bulk organization of cell junctions” value (cell junctions) was “minimal effects” and the “effect on bulk organization of the actin bundles” value (actin; GFP-tagged hiPSC) was “minimal effects”.

In the case of CN[C@@H]1C[C@H]2O[C@@](C)([C@@H]1OC)n1c3ccccc3c3c4c(c5c6ccccc6n2c5c31)C(=O)NC4 [staurosporine], the “myosin organization through the thickness of the cell” value (myosin) is reported as “induced reorganization of the myosin”, the “effect on colony and cell morphology” value (hiPSC colonies) is reported as “major effects on colony and cell morphology, inducing rearrangements in cell packing and shape” and the “distribution of ZO-1 along the z-axis” value (ZO-1) is reported as “redistribution of ZO-1 along the z-axis”. For the same compound, the “number of DSP-positive plaques” value (desmosomes; 3D Object Counter, Student's t-test p<0.01) was “increased in number” and the “effect on desmosome localization” value (desmosomes; GFP-tagged hiPSC) was “induced re-localization of desmosomes; also recorded: desmosomes relocalized throughout the cell”.

In the case of (S)-nitro blebbistatin, the “relative myosin protein abundance and organization” value (myosin; [1]) is reported as “reorganization and relative decrease”, the “myosin organization through the thickness of the cell” value (myosin) is reported as “induced reorganization of the myosin” and the “distribution of ZO-1 along the z-axis” value (ZO-1) is reported as “redistribution of ZO-1 along the z-axis”. The “effect on Golgi organization” value (Golgi) was “induced fragmentation of the organelle” and the “relative actin protein abundance and organization” value (actin; [1]) was “reorganization and relative decrease”.
